The test system of the assay is common house mosquitoes (Culex pipens pallens) at the last instar larval stages. The assay is described as follows: Test Example 2: mortality of common house mosquito larvae in treated water. The assay is classed as in vivo. Conditions: 24 h, 3.5 ppm in water, 30 last instar larvae, after 1 day. On the procedure:
Each of the formulations that were prepared in Formulation Example 15 containing Present compounds (1), (2), (3) and (4) was diluted with water so as to make a concentration of each of the compound 500 ppm, to obtain a diluted solution containing Present compounds (1), (2), (3) and (4), respectively. The above-mentioned diluted solutions were added to 100 mL of ion-exchanged water (Concentrations of Present compounds were 3.5 ppm). Thirty (30) heads of common house mosquitoes (Culex pipens pallens) at the last instar larval stages were released into the resulting diluted solutions having the concentration of 3.5 ppm, and after 1 day, the life and death of the insects were examined, and the mortality of insects was calculated by the following equation. Mortality (%)=(Number of the dead insects/Number of test insects)×100

For orientation: mortality means the percentage killed. `CC(C)(N)CNC(=O)c1cc(COCc2ccccc2)on1` [(1)] displayed a mortality at 3.5 ppm of at least 91%.

`CC(C)(N)CNC(=O)c1cc(COCc2ccc3ccccc3c2)on1` [(2)]: the mortality at 3.5 ppm was at least 91%.

`CCCCc1cc(C(=O)NCC(C)(C)N)no1` [(3)] returned a mortality at 3.5 ppm of at least 91%.

Compound `CCCCc1cc(C(=O)NC(C)(C)C(C)(C)N)no1` [(4)] came in with a mortality at 3.5 ppm of at least 91%.

Source of the values: patent US10426168B2, “Agent for controlling noxious arthropods” (Sumitomo Chemical Company, Limited, priority 2015, dated 2019).
